Measured values taken from ChEMBL document CHEMBL1158839, “Dichotomins J and K, vasodilator cyclic peptides from Stellaria dichotoma” (J Nat Prod, 2005).
Calls of active or inactive are those of the source. The calls are words filed in the database; no cut-off is given here.

Key:
Aorta [1] = test: Vasorelaxant activity against norepinephrine-induced contraction in Wistar rat thoracic aorta at 100 uM; assay type: functional, tissue-based
Aorta [2] = test: Vasorelaxant activity against norepinephrine-induced contraction in Wistar rat thoracic aorta at 30 uM; assay type: functional, tissue-based

Question: Which Activity (Aorta [1]) does the source give for `CC[C@@H](C)[C@@H]1NC(=O)[C@H](C(C)C)NC(=O)[C@H](Cc2ccc(O)cc2)NC(=O)[C@H](Cc2ccc(O)cc2)NC(=O)[C@@H]2CCCN2C(=O)[C@H]([C@H](C)CC)NC(=O)[C@H](C(C)C)NC(=O)[C@H](C)NC(=O)[C@@H]2CCCN2C1=O` here?
Answer: Active

Question: How did the Activity (Aorta [2]) turn out when `CC[C@@H](C)[C@@H]1NC(=O)CNC(=O)[C@H](C)NC(=O)[C@H](Cc2ccc(O)cc2)NC(=O)[C@H](CC(C)C)NC(=O)[C@H](Cc2ccccc2)NC1=O` was run?
Answer: Active
